In ChEMBL document CHEMBL3867467, “Discovery of indazole ethers as novel, potent, non-steroidal glucocorticoid receptor modulators” (Bioorg Med Chem Lett, 2016):

How the values were obtained:
in vivo [1] = conditions: Wistar, rat, iv, 1 umol/kg
Description: Volume of distribution at steady state in Wistar rat at 1 umol/kg, iv through bolus administration by LC/MS/MS analysis

in vivo [2] = conditions: Wistar, rat, iv, 1 umol/kg; remark: listed apart in the source
in vivo [3] = conditions: Lewis, rat, po
Description: AUC in Lewis rat model of SCW-induced joint inflammation at anti-inflammatory ED50 administered via oral gavage once daily for 8 days measured 24 hrs post last dose on day 8 by LC/MS/MS analysis

in vitro [4] = conditions: rat, plasma
Description: Fraction unbound in rat plasma at 10 uM

in vivo [5] = conditions: Wistar, rat, iv, 1 umol/kg; remark: listed apart in the source
Description: Clearance in Wistar rat at 1 umol/kg, iv through bolus administration by LC/MS/MS analysis

in vivo [6] = conditions: Wistar, rat, po, 10 umol/kg
in vivo [7] = conditions: Wistar, rat, po, 10 umol/kg; remark: listed apart in the source
in vitro [8] = conditions: human, plasma
Description: Fraction unbound in human plasma at 10 uM

[9] = Intrinsic clearance in rat hepatocytes assessed per million cells; type: ADME, cell-based, Hepatocyte; conditions: read-out: CLH

Vd (in vivo [1]) [L/kg]	half-life (in vivo [2]) [h]	AUC (in vivo [3]) [µM·h]	fraction unbound at 10 µM (in vitro [4])	clearance (in vivo [5]) [mL/min/kg]	bioavailability (in vivo [6]) [%]	AUC(0-inf) (in vivo [7]) [µM·h]	fraction unbound at 10 µM (in vitro [8])	hepatocyte CLint [9] [µL/min/1e6 cells]	SMILES
14	11	0.08	0.00011	19	53	7.1	0.0001	–	C[C@H](NC(=O)C(F)(F)F)[C@H](Oc1ccc2c(cnn2-c2ccc(F)cc2)c1)c1ccccc1
15	–	0.035	0.0063	28	66	5.9	0.0015	–	COc1ccc([C@@H](Oc2ccc3c(cnn3-c3ccc(F)cc3)c2)[C@H](C)NC(=O)C2CC2)cn1
0.63	0.27	0.59	0.31	54	–	0.35	> 0.41	27	C[C@]12C=CC(=O)C=C1CC[C@@H]1[C@@H]2[C@@H](O)C[C@@]2(C)[C@H]1CC[C@]2(O)C(=O)CO [PREDNISOLONE]
